Holding throughout (assay): growth of human tumour cells (NCI), 48 h
Assay [1] has as its system OVCAR-5 ovarian.
Assay [2] relates to TK-10 renal.
For assay [3], the system named is EKVX NSCLC.
In assay [4] the test system is MDA-MB-231 breast.
The test system of assay [5] is SK-MEL-2 melanoma.
Assay [6] deals with UO-31 renal.
For assay [7], the system named is BT-549 breast.
For assay [8], the system named is OVCAR-3 ovarian.
For assay [9], the system named is M14 melanoma.
For assay [10], the system named is MOLT-4 leukemia.

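Following 48 hours of exposure in 96-well plates, responses at five concentrations were used to interpolate endpoints linearly. GI50: concentration for 50% inhibition of growth. Definition used: TGI = concentration required for complete inhibition of growth.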

Regarding `C=C1C(=O)O[C@H]2[C@H]1CC/C(COC(=O)NCc1ccc(Cn3c(=O)sn(-c4ccc(OC)cc4)c3=O)cc1)=C\CC[C@@]1(C)O[C@@H]21`, the GI50 is 2060 nM in assay [1]; 1.91 µM in assay [2]; 3.5 µM in assay [3]; 1970 nM in assay [4]; 3.19 µM in assay [5]; 1560 nM in [6]. Also, the GI50 in assay [7] was 4370 nM; in assay [8], 1610 nM; in [9] it was 2190 nM; in assay [10] it was 1930 nM. Also, the TGI in [1] worked out at 4.81 µM; in [2], 3.49 µM; in [3] it was 14.6 µM; in assay [4] it was 4.11 µM; in assay [5] it was 9.46 µM; in assay [6], 2.94 µM. Further, the TGI came out at 16.3 µM in [7], 3.04 µM in [8], 5.65 µM in assay [9] and 5.95 µM in assay [10].
For the compound `Nc1n[nH]c2cc(F)c([C@@H]3Nc4ccc5[nH]ncc5c4[C@H]4C5CCC(C5)[C@@H]34)cc12` (some centres undefined), the GI50 in assay [1] was 326 nM; in [2] it was 3.46 µM; in assay [3], 0.237 µM; in assay [4] it was 200 nM; in [5], 0.798 µM; in assay [6], 651 nM. In addition, the GI50 in assay [7] was 141 nM; in assay [8], 167 nM; in [9], 147 nM; in assay [10], 207 nM. Moreover, the TGI in assay [1] is 24.4 µM; in assay [2] it was more than 50 µM; in assay [3], 49.4 µM; in assay [4], 7.86 µM; in [5] it was 20.1 µM; in assay [6], 30.8 µM. Besides, the TGI in assay [7] is 2.59 µM; in assay [8] it was 6.35 µM; in assay [9], 12.3 µM; in [10] it was more than 50 µM.
For `CCN1C(=O)N(c2ccccc2)C2NC(=S)N(/N=C/C=C/c3ccccc3OC)C21` (centres undefined), the GI50 is 170 nM in assay [1]; 23.3 µM in [2]; 0.174 µM in [3]; 92.1 nM in assay [4]; 0.166 µM in [5]; 486 nM in assay [6]. Moreover, the GI50 in assay [7] was 112 nM; in assay [8], 77.8 nM; in assay [9], 94.6 nM; in [10], 128 nM. The TGI in [1] is more than 86.2 µM; in [2], more than 100 µM; in assay [3], more than 100 µM; in [4], 5.13 µM; in assay [5] it was more than 76.2 µM; in assay [6], more than 100 µM. Moreover, the TGI in assay [7] is 3.41 µM; in assay [8], 0.221 µM; in assay [10], more than 100 µM.
In the case of `O=C(O)c1ccc2c(c1C(=O)O)C(=O)OC2(c1ccc(O)cc1)c1ccc(O)cc1`, the TGI in assay [1], in assay [2], in assay [3], in assay [4], in [5] and in assay [6] was more than 100 µM throughout. Moreover, the TGI in [7], in [8], in [9] and in assay [10] was more than 100 µM throughout.
With `N#Cc1c[nH]n2c(N=Nc3ccc(Cl)cc3)c(O)nc12`, the GI50 in [1] was 84900 nM; in assay [2], 21.3 µM; in assay [3], 31.7 µM; in assay [4], 16200 nM; in assay [5], 52 µM; in assay [6], 32300 nM. Also, the GI50 in [7] was 28500 nM; in assay [8], 40300 nM; in assay [9] it was 77300 nM; in assay [10] it was 33700 nM. The TGI in assay [1] is more than 100 µM; in assay [2] it was 68.3 µM; in assay [3], 81.1 µM; in assay [4] it was more than 100 µM; in assay [5], more than 100 µM; in assay [6], more than 100 µM. Besides, the TGI in assay [7] is 77.6 µM; in assay [8], more than 100 µM; in [9], more than 100 µM; in assay [10] it was more than 100 µM.
Turning to `O=C(/C(=C/c1ccc([N+](=O)[O-])cc1)SCc1ccccc1)c1ccc(Cl)cc1`, the GI50 is 2980 nM in [1]; 5.11 µM in assay [2]; 6.77 µM in assay [3]; 2670 nM in assay [4]; 15.3 µM in [5]; 1500 nM in assay [6]. Moreover, the GI50 is 2400 nM in assay [7], 1910 nM in assay [8], 2630 nM in assay [9] and 2610 nM in [10]. Moreover, the TGI in [1] is 11.9 µM; in assay [2] it was 18.1 µM; in assay [3] it was 20.2 µM; in [4] it was 10.2 µM; in assay [5], 32.5 µM; in assay [6], 3.3 µM. In addition, the TGI in assay [7] is 6.39 µM; in assay [8], 4.29 µM; in [9], 8.59 µM; in assay [10], more than 100 µM.
On to `CC(C)c1cc2c(cc1S(=O)(=O)O)[C@@]1(C)CCC[C@@](C)(C(=O)O)C1CC2` (some centres undefined), for which the TGI in assay [1], in assay [2], in assay [3], in assay [4], in assay [5] and in assay [6] was more than 100 µM in each case. Besides, the TGI in assay [7], in assay [8], in assay [9] and in assay [10] was more than 100 µM in each case.

The values above are taken from PubChem BioAssay (NCI).
